Patent publication US10150737B2, “Compounds for controlling arthropods” (priority 2013, dated 2018)

Assays:
[1] = system: Lucilia cuprina; experiment: Lucilia cuprina test; assay type: in vivo; details: application rate 100 ppm; L1 larvae; after 2 days
Method in brief: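 Mortality (%) of first-instar blowfly larvae, about 20 per vessel, recorded 2 days after exposure to compound-treated minced horsemeat. Compound dissolved in dimethyl sulphoxide, then water-diluted to the desired concentration.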

[2] = system: Phaedon cochleariae; experiment: Phaedon cochleariae - spray test; assay type: in vivo; details: larvae on Chinese cabbage leaf discs, after 7 days
Method in brief: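 Mortality of mustard beetle larvae was scored as % at day 7 on Brassica pekinensis leaf discs. Discs had been treated by spraying at the desired concentration, using an acetone/dimethylformamide solution diluted in water with 1000 ppm alkylaryl polyglycol ether, and dried before larvae were added.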

[3] = system: Rhipicephalus sanguineus; experiment: Rhipicephalus sanguineus - in vitro contact tests with adult brown dog ticks; assay type: in vivo; details: application rate 5 μg/cm2; after 48 h; ticks dead or moribund
Experimental: For the coating of the test tubes, 9 mg of active ingredient are first dissolved in 1 ml of acetone p.a. and then diluted to the desired concentration with acetone p.a. 250 μl of the solution are distributed homogeneously on the inner walls and base of a 25 ml test tube by turning and rocking on an orbital shaker (rocking rotation at 30 rpm for 2 h). With 900 ppm active ingredient solution and internal surface 44.7 cm^2, given homogeneous distribution, an area-based dose of 5 μg/cm^2 is achieved.
After the solvent has evaporated off, the tubes are populated with 5-10 adult dog ticks (Rhipicephalus sanguineus), sealed with a perforated plastic lid and incubated in a horizontal position in the dark at room temperature and ambient humidity. After 48 h, efficacy is determined. To this end, the ticks are knocked to the floor of the tube and incubated on a hotplate at 45-50° C. for not more than 5 min. Ticks which remain motionless on the floor or move in such an uncoordinated manner that they are unable to deliberately avoid the heat by climbing upwards are considered to be dead or moribund.
An efficacy of 100% means that all the ticks were dead or moribund. 0% efficacy means that none of the ticks had been harmed.

[4] = system: Ctenocephalides felis; experiment: Ctenocephalides felis - oral test; assay type: in vivo; details: application rate 100 ppm in citrated cattle blood; after 2 days
Method in brief: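 Roughly 20 unfed adult C. felis imbibe compound-dosed citrated cattle blood (DMSO formulation) across parafilm from a cylinder above their gauze chamber; percentage mortality recorded at day 2.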

[5] = system: Musca domestica; experiment: Musca domestica test; assay type: in vivo; details: application rate 100 ppm; adult houseflies; after 2 days
Method in brief: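 First, 10 mg compound was taken up in 0.5 ml DMSO and then brought with water to the required concentration. This was applied with sugar solution to a sponge in vessels holding 10 adult flies; kill was assessed after 2 days.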

[6] = logP determination by HPLC on a reversed-phase column (C18); assay type: physicochemical; details: for logP: HPLC, C18 reversed phase, acetonitrile/water with formic acid, EEC Directive 79/831 Annex V.A8; for logP^a): HPLC-MS method a); for log P: HPLC-MS
[7] = system: Boophilus microplus Parkhurst strain, SP-resistant; experiment: Boophilus microplus - dip test; assay type: in vivo; details: application rate 100 ppm; dip of engorged adult female ticks; after 7 days
Experimental: Test animals: cattle ticks (Boophilus microplus) Parkhurst strain, SP-resistant
(§1) Solvent: dimethyl sulphoxide
10 mg of active ingredient are dissolved in 0.5 ml of dimethyl sulphoxide. For the purpose of producing a suitable formulation, the active ingredient solution is diluted with water to the concentration desired in each case.
This active ingredient formulation is pipetted into tubes. 8-10 adult engorged female cattle ticks (Boophilus microplus) are transferred into a further tube with holes. The tube is immersed into the active ingredient formulation, and all the ticks are completely wetted. After the liquid has run out, the ticks are transferred on filter discs into plastic dishes and stored in a climate-controlled room.
Efficacy is assessed after 7 days by laying of fertile eggs. Eggs which are not visibly fertile are stored in a climate-controlled cabinet until the larvae hatch after about 42 days. An efficacy of 100% means that none of the ticks has laid any fertile eggs; 0% means that all the eggs are fertile.

[8] = system: Boophilus microplus; experiment: Boophilus microplus - injection test; assay type: in vivo; details: application rate 20 μg/animal; injection into engorged adult female ticks; after 7 days
Method in brief: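 Five engorged adult female cattle ticks each received a 1 μl abdominal injection of compound solution in dimethyl sulphoxide. Fertile egg laying was assessed at 7 days, with doubtful eggs incubated about 42 days until hatch. 0% efficacy means all eggs fertile.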

[9] = system: Myzus persicae; experiment: Myzus persicae - spray test; assay type: in vivo; details: application rate 100 g/ha; Chinese cabbage leaf discs; after 6 days
Method in brief: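 Mortality of the green peach aphid, as % killed, was read 6 days after spraying infested Brassica pekinensis leaf discs. Compound formulated in acetone/dimethylformamide and made up with emulsifier-containing (1000 ppm) water.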

[10] = system: Spodoptera frugiperda; experiment: Spodoptera frugiperda - spray test; assay type: in vivo; details: caterpillars on maize leaf discs, after 7 days
Method in brief: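 Percent mortality of Spodoptera frugiperda caterpillars scored 7 days after placing them on dried maize leaf discs sprayed at the desired concentration. Spray formulation: compound dissolved in acetone/dimethylformamide, made up with water containing 1000 ppm emulsifier.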

[11] = system: Tetranychus urticae; experiment: Tetranychus urticae - spray test, OP-resistant; assay type: in vivo; details: application rate 100 g/ha; bean leaf discs; after 6 days
Method in brief: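 Mortality (%) read on day 6 after spraying Phaseolus vulgaris leaf discs carrying all mite stages with formulations at the desired concentration. Formulation: active ingredient in acetone plus dimethylformamide, made up with emulsifier-containing water (1000 ppm alkylaryl polyglycol ether).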

[12] = system: Ctenocephalides felis; experiment: Ctenocephalides felis - in vitro contact tests with adult cat fleas; assay type: in vivo; details: application rate 5 μg/cm2 (=500 g/ha); after 48 h; fleas dead or moribund
Method in brief: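 Efficacy, as percentage of fleas dead or moribund, was scored at 48 h by knocking fleas to the tube base. Exposure was by contact with a dried acetone film of compound at 5 μg/cm^2 area dose; 5–10 adults per tube, room temperature, ambient humidity.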

[13] = system: Amblyomma hebraeum; experiment: Amblyomma hebaraeum test (tick nymphs, immersion); assay type: in vivo; details: application rate 100 ppm; tick nymphs immersed one minute; after 42 days
Experimental: as §1
To produce an appropriate active ingredient formulation, 10 mg of active ingredient are mixed with 0.5 ml of dimethyl sulphoxide, and the concentrate is diluted with water to the desired concentration.
Tick nymphs (Amblyomma hebraeum) are placed into perforated plastic beakers and immersed in the desired concentration for one minute. The ticks are transferred on filter paper into a Petri dish and stored in a climate-controlled cabinet.
After 42 days, the kill in % is determined. 100% means that all of the ticks have been killed; 0% means that none of the ticks have been killed.

[14] = reversed-phase column (C18), Table I-T3

| logP [6] | SMILES | efficacy (kill) [1] [%] | efficacy ([2]; application rate 100 g/ha) [%] | efficacy [3] [%] | efficacy (kill) [4] [%] | efficacy (kill) [5] [%] | efficacy (laying of fertile eggs) [7] [%] | efficacy (laying of fertile eggs) [8] [%] | efficacy [9] [%] | efficacy ([10]; application rate 100 g/ha) [%] | efficacy [11] [%] | efficacy [12] [%] | logP^a) ([6]; reversed-phase column (C18)) | log P [6, 14] | efficacy (kill) [13] [%] | logP^a) [6] | logP^a) [6, 14] | efficacy ([2]; application rate 500 g/ha) [%] | efficacy ([10]; application rate 500 g/ha) [%] |
| --- | --- | --- | --- | --- | --- | --- | --- | --- | --- | --- | --- | --- | --- | --- | --- | --- | --- | --- | --- |
| 4.5 | Cc1cc(C(F)(C(F)(F)F)C(F)(F)F)cc(C(F)(F)F)c1-c1cc(-c2cnc(Cl)c(C(=O)NC3CC3)c2)on1 [I-T22-6] | 100 | 100 | 100 | 95 | 90 | 100 | 100 |  |  |  |  |  |  |  |  |  |  |  |
| 4.7 | Cc1cc(C(F)(C(F)(F)F)C(F)(F)F)cc(C(F)(F)F)c1-c1cc(-c2ccc(Cl)c(C(=O)NC3(C#N)CC3)c2)on1 [I-T22-7] | 100 | 100 | 100 | 100 | 100 | 100 | 100 | 100 | 100 | 100 | 100 |  |  |  |  |  |  |  |
|  | O=C(NC1CC1)c1cc(-c2cnn(-c3c(Br)cc(C(F)(C(F)(F)F)C(F)(F)F)cc3C(F)(F)F)c2)cnc1Cl [I-T3-160] | 100 | 100 | 100 | 100 | 100 | 100 | 100 | 90 | 100 | 100 | 100 | 4.0 | 4.0 |  |  |  |  |  |
|  | Cc1cc(C(F)(C(F)(F)F)C(F)(F)F)cc(I)c1-n1cc(-c2ccc(Cl)c(C(=O)NC3(C#N)CC3)c2)cn1 [I-T3-176] | 100 | 100 | 100 | 100 | 100 | 100 | 100 | 100 | 100 | 100 | 100 |  | 4.4 |  |  |  |  |  |
|  | N#CC1(NC(=O)c2cc(-c3cnn(-c4c(Cl)cc(C(F)(C(F)(F)F)C(F)(F)F)cc4C(F)(F)F)c3)ccc2Cl)CC1 [I-T3-57] | 100 | 100 |  | 100 | 100 | 100 | 100 |  | 100 | 100 | 100 |  |  | 100 | 4.3 | 4.3 |  |  |
|  | Cc1cc(C(F)(C(F)(F)F)C(F)(F)F)cc(Br)c1-n1cc(-c2ccc(Cl)c(C(=O)NC3CC3)c2)cn1 [I-T3-86] | 100 | 100 |  | 100 | 100 | 100 | 100 |  | 100 | 100 | 100 |  |  | 100 | 4.5 | 4.5 |  |  |
|  | CCc1cc(C(F)(F)C(F)(F)F)cc(C)c1-n1cc(-c2ccc(Cl)c(C(=O)NC3(C#N)CC3)c2)cn1 [I-T3-80] | 100 | 100 | 80 | 100 | 100 | 80 | 100 | 90 | 100 | 100 | 100 |  |  |  | 4.2 | 4.2 |  |  |
| 4.9 | Cc1cc(C(F)(C(F)(F)F)C(F)(F)F)cc(C(F)(F)F)c1-c1cc(-c2ccc(Cl)c(C(=O)NC3CC3)c2)on1 [I-T22-5] | 100 | 100 | 100 | 100 | 100 | 100 | 100 | 100 | 100 | 100 | 100 |  |  |  |  |  |  |  |
|  | Cc1cc(C(F)(C(F)(F)F)C(F)(F)F)cc(C(F)(F)F)c1-n1cc(-c2cnc(Cl)c(C(=O)N(C)C3(C#N)CC3)c2)cn1 [I-T3-111] | 100 |  |  | 100 | 100 | 98 | 100 |  |  | 90 | 100 | 4.4 | 4.4 | 80 |  |  | 100 | 100 |
| 4.4 | Cc1cc(C(F)(C(F)(F)F)C(F)(F)F)cc(C(F)(F)F)c1-c1cc(-c2cnc(Cl)c(C(=O)NC3(C#N)CC3)c2)on1 [I-T22-4] |  | 100 | 100 | 100 |  | 100 | 100 |  |  | 100 |  |  |  |  |  |  |  |  |
|  | Cc1cc(C(F)(C(F)(F)F)C(F)(F)F)cc(I)c1-n1cc(-c2ccc(Cl)c(C(=O)NC3CC3)c2)cn1 [I-T3-175] | 100 | 100 | 100 | 100 | 100 | 100 | 100 | 100 | 100 | 100 | 100 |  | 4.5 |  |  |  |  |  |
|  | N#CC1(NC(=O)c2cc(-c3cnn(-c4c(Br)cc(C(F)(C(F)(F)F)C(F)(F)F)cc4C(F)(F)F)c3)cnc2Cl)CC1 [I-T3-165] | 100 | 100 | 100 | 100 | 100 | 100 | 100 | 100 | 100 | 100 | 100 |  | 3.9 |  |  |  |  |  |
